# System: S. pneumoniae R6 strain
# Experiment: Whole-cell assay on blood agar plates, inhibition zones
# Format: cell-based
# Details: 0.5, 0.75 and 1.0 μg/mL, data not shown
# Protocol: Whole-cell Assays: Selected compounds were assayed against S. pneumoniae on blood agar plates as shown on FIG. 3.
row,SMILES,antibacterial activity (inhibition zones compared to DMSO)
1,"O=C(CC(NCCc1c[nH]c2ccccc12)C(=O)O)c1ccc(F)cc1 (centres unmarked) [Compound B, 2-(2-(1H-indol-3-yl)ethylamino)-4-(4-fluorophenyl)-4-oxobutanoic acid]",significant antibacterial activity
2,"Cc1ccc(C(=O)CC(NCCc2c[nH]c3ccccc23)C(=O)O)cc1 (centres unmarked) [Compound A, 2-(2-(1H-indol-3-yl)ethylamino)-4-oxo-4-p-tolylbutanoic acid]",weaker antibacterial activity than Compound B

# Source: patent US8236849B2, “Model for glutamate racemase inhibitors and glutamate racemase antibacterial agents” (Ohio Northern University, priority 2008, dated 2012)
